Data reported in publication PMC7200681, “The calcitonin-like system is an ancient regulatory system of biomineralization” (Scientific Reports, 2020).
Bridge positions count the residues as written; N and C are the ends.

Assays:
mussel mantle cells = assay: Calcium uptake by isolated mantle cells (calcein fluorescence); format: cell-based, Mytilus galloprovincialis; settings: CALCIIa 10 μM, 4 hours, calcein 50 mM
Procedure: Figure 7 Effect of the mussel calcitonin-like peptide on (A) calcium (ppm) concentration in the mantle edge and (B) calcium uptake by mantle cells of the Mediterranean mussel. (A) The quantity of calcium (ppm) present in the mantle edge after mussel CALCIIa peptide incubation was measured using a Microwave Plasma-Atomic Emission Spectrometer (MP-AES, Agilent) at 393.366 nm. A standard curve for calcium was performed before analysing the samples. In vitro mantle assays with CALCIIa peptide and with ouabain and control (culture medium and mantle) were repeated on at least 3 independent occasions. […] An increase in cellular fluorescence represents an increase in calcium uptake. Fluorescence of the CALCIIa peptide stimulated cells was 1.9 times higher than the control. The average mantle cell size was 3–4 μm and fluorescent images were taken using a Leica DM IL microscope coupled to a Visicam HDMI 6 digital camera and photographs were analysed using ImageJ software (v. 1.52a) to calculate the fluorescence intensity and for image overlay. […]
Mantle cells were isolated from Mediterranean mussel mantle edge explants of the posterior region and were incubated with the CALCIIa peptide. […] Photographs were analysed for image overlay and to calculate fluorescence intensity (corrected total cell fluorescence, CTCF) using ImageJ software (v. 1.52a). […]

[1] = test system: alpha-carbonic anhydrase (CA) esterase activity in mussel mantle edge; assay: Esterase (carbonic anhydrase) activity in mantle after ex-vivo incubation; set-up: species or system Mytilus galloprovincialis; settings: after exposure to CALCIIa 10 μM or ouabain 2 mM; 4-Nitrophenyl acetate substrate; n = 6
Procedure: (A) Esterase activity and (B) Acid phosphatase activity. Enzyme activity was quantified in protein extracts from the mantle of control or challenged samples that were incubated with the mussel CALCIIa peptide. Values represent the mean ± SEM (CA, n = 6 and TRAP, n = 10) performed in duplicate. Prism GraphPad v5 software was used to assess the significance of the differences between the groups using One-way Anova and Tukey’s multiple comparison test. […] C - control; P - peptide (10 μM); O - ouabain (2 mM), OP - ouabain (2 mM) and peptide (10 μM); PreOP - pre stimulation for 1 hour with the peptide and 4 hours incubation with OP.
The posterior mantle edge region of the Mediterranean mussel was collected and washed in culture medium. The composition of the culture medium was as described in[91] […] The culture medium was supplemented with heat inactivated 2% FBS (SIGMA-ALDRICH), 0.1% penicillin: streptomycin antibiotic mix (10.000 U:10 mg/ml, SIGMA-ALDRICH) and 250 μg/ml sterile filtered 1:100 amphotericin B solution (Sigma-Aldrich). The posterior mantle edge from mussels was collected into culture medium and cut into fragments of approximately 1–2 mm in length. […]
Esterase activity in the mussel posterior mantle edge (n = 6/experimental group) was quantified using a colorimetric assay that measures the conversion of the substrate 4-Nitrophenyl acetate to p-nitrophenolate[92]. […]

Substance: H-CTWGGGMSDEMCSTVDIDEIQRSFQVIHDRNSP-NH2 (disulfide 1-12 (inferred)) [CALCIIa, Mediterranean mussel calcitonin-like mature peptide, 33 aa, synthesized with disulphide bond and C-terminal amidation]
- Increase in intensity of fluorescent calcium staining versus control mantle cells (mussel mantle cells; ImageJ CTCF): 1.9 times
- Mean corrected total cell fluorescence (CTCF) of mantle cells (mussel mantle cells; control = 1405154): 2654581
- CA esterase activity in mantle edge (in words) [1]: No change
